Source: the NIST ThermoML archive (doi:10.1021/je0302304)

Test: xn = mol fraction of the nth substance listed
Details: 101.32 kPa, Liquid

COCCOC [1,2-dimethoxyethane] + CCO
mass density [kg/m3]
Details	288.15 K	298.15 K	308.15 K	318.15 K
x1 = 0.0045	794.5	786	777.3	768.5
x1 = 0.0086	795.2	786.6	777.9	769
x1 = 0.0125	795.8	787.1	778.4	769.6
x1 = 0.0165	796.4	787.7	779	770.1
x1 = 0.0205	797	788.3	779.6	770.7
x1 = 0.0305	798.5	789.8	781	772
x1 = 0.05	801.3	792.5	783.6	774.6
x1 = 0.1	807.9	799	790	780.7
x1 = 0.15	814.2	805	795.8	786.3
x1 = 0.2	819.9	810.6	801.2	791.5
x1 = 0.25	825.2	815.7	806.1	796.3
x1 = 0.3	830.1	820.5	810.7	800.7
x1 = 0.35	834.6	824.9	815	804.8
x1 = 0.4	838.8	829	818.9	808.7
x1 = 0.45	842.7	832.8	822.6	812.2
x1 = 0.5	846.4	836.3	826	815.5
x1 = 0.55	849.8	839.6	829.2	818.6
x1 = 0.6	853	842.7	832.1	821.5
x1 = 0.6499	856	845.5	834.9	824.1
x1 = 0.7	858.7	848.2	837.5	826.6
x1 = 0.7499	861.3	850.7	839.9	829
x1 = 0.7999	863.7	853.1	842.2	831.2
x1 = 0.85	866.1	855.4	844.5	833.4
x1 = 0.9	868.3	857.5	846.6	835.4
x1 = 0.9499	870.4	859.5	848.5	837.3
x1 = 1	872.4	861.5	850.4	839.2

COCCOCCOC [2,5,8-trioxanonane] + CCO
mass density [kg/m3]
Details	288.15 K	298.15 K	308.15 K	318.15 K
x1 = 0.0045	795.6	787	778.4	769.6
x1 = 0.0085	797.1	788.6	779.9	771.1
x1 = 0.0125	798.7	790.1	781.5	772.6
x1 = 0.0165	800.3	791.7	783	774.1
x1 = 0.0205	801.8	793.2	784.4	775.6
x1 = 0.0305	805.5	796.9	788.1	779.2
x1 = 0.05	812.6	803.8	795	786
x1 = 0.1	828.7	819.7	810.7	801.5
x1 = 0.15	842.6	833.6	824.5	815.1
x1 = 0.2	855	845.8	836.5	827.1
x1 = 0.25	865.9	856.6	847.3	837.8
x1 = 0.3	875.7	866.3	856.9	847.3
x1 = 0.35	884.5	875	865.5	855.8
x1 = 0.4	892.4	882.9	873.2	863.5
x1 = 0.45	899.6	889.9	880.2	870.5
x1 = 0.4999	906	896.4	886.7	876.8
x1 = 0.55	912	902.3	892.5	882.6
x1 = 0.5999	917.4	907.7	897.8	887.9
x1 = 0.65	922.5	912.6	902.8	892.8
x1 = 0.6999	927.1	917.2	907.3	897.3
x1 = 0.7499	931.3	921.4	911.5	901.5
x1 = 0.7999	935.3	925.4	915.4	905.4
x1 = 0.8499	939	929	919.1	909
x1 = 0.8998	942.4	932.4	922.5	912.5
x1 = 0.9498	945.7	935.7	925.7	915.7
x1 = 1	948.6	938.7	928.7	918.6
